Data on 16 compounds can be found in US8283353B2, “Fused ring compound and use thereof” (Takeda Pharmaceutical Company Limited, priority 2009, dated 2012).

Each structure is given as a SMILES string.

One test deals with T1, human AT1 receptor (Homo sapiens, UniProt P30556).
T1 construct: expressed in transfected cells; membrane fraction
T1 sequence (P30556 1-359): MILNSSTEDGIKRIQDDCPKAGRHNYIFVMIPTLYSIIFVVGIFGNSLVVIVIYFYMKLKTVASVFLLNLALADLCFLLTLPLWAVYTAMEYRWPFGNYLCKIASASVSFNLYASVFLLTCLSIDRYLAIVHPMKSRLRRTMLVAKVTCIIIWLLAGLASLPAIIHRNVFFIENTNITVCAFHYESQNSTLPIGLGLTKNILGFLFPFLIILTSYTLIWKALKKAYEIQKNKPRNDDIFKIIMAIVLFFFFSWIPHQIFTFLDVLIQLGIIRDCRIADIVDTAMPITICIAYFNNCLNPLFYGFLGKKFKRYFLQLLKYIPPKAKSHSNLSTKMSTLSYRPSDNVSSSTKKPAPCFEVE
In words: AT1 receptor antagonistic activity: [125I]-angiotensin II binding assay on human AT1 receptor-expressing CHO-K1 cellular membrane fraction. The following applies: 22.5 pM [125I]-angiotensin II, 1 hr room temperature. In outline:
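Competition binding used radiolabelled angiotensin II on stably transfected CHO-K1 membrane fractions in Tris pH 7.4/MgCl2 buffer, optionally containing 0.3 mg/mL fatty acid-free BSA, 1 hr at room temperature. Filtration onto GF/C separated bound tracer, and nonspecific binding was measured with candesartan.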

The target in the next test is T2, human PPARγ (Homo sapiens, UniProt P37231).
T2 construct: expressed in transfected cells
T2 sequence (P37231 1-477 isoform P37231-2): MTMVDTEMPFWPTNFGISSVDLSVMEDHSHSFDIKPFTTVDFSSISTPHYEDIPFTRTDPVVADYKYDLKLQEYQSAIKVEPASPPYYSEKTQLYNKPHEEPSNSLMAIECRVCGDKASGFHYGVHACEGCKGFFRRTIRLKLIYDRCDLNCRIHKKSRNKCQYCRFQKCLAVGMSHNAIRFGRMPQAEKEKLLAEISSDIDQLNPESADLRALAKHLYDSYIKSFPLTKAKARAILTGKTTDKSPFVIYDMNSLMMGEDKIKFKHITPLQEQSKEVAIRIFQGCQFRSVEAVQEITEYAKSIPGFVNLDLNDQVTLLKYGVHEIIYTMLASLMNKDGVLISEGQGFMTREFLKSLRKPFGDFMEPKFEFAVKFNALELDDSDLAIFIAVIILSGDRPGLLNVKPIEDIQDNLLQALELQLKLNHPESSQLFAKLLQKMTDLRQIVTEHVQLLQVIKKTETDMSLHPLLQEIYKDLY
T2 sequence (P19793 1-462 partner): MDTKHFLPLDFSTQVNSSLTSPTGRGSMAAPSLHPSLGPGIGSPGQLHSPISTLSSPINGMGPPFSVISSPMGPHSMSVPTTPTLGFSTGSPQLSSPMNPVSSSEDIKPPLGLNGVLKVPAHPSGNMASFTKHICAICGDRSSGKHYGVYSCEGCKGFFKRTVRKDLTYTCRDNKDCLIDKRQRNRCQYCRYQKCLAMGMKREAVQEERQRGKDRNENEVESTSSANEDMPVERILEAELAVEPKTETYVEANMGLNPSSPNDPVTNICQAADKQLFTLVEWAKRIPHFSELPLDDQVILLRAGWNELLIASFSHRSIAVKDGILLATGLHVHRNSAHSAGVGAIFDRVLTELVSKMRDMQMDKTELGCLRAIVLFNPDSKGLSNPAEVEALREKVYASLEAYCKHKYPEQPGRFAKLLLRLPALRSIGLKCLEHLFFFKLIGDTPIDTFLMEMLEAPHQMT
In words: PPARγ agonistic activity: luciferase reporter assay in PPARγ:RXRα:4ERPP/CHO-K1 cells. Type of test: cell-based. The following applies: CHO-K1, test compound 10^−6 M; luciferase activity of control compound X (1 μM) = 100%, non-administration group = 0%. The procedure, abridged:
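CHO-K1 cells stably carrying hPPARγ/RXRα and a 4ERPP luciferase reporter, dosed with test compound for 1 day at 37 °C in Ham's F12 with 0.1% fatty acid-free BSA. Luciferase read by luminescence; activity given as % of 1 μM control compound X (100%) versus untreated (0%).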
A general note: Reporter assays use an easily measured gene product as a stand-in for the process of interest.

Regarding `CCCc1c(Cc2ccc(-c3ccccc3-c3noc(=O)[nH]3)cc2)c(=O)n([C@H]2C[C@H](OCC(O)(CC)CC)C2)c2ncnn12` [Example 259, 4-[trans-3-(2-ethyl-2-hydroxybutoxy)cyclobutyl]-6-{[2′-(5-oxo-4,5-dihydro-1,2,4-oxadiazol-3-yl)biphenyl-4-yl]methyl}-7-propyl[1,2,4]triazolo[1,5-a]pyrimidin-5(4H)-one], the IC50 (commonly the concentration that inhibits the measured activity by half) on human AT1 receptor was found to be 2.3 nM. Further, the activation at 1 µM on human PPARγ was found to be 28%.

Regarding `CCCc1c(Cc2ccc(-c3ccccc3-c3noc(=O)[nH]3)cc2)c(=O)n([C@H]2CC[C@H](OCC(C)O)CC2)c2ncnn12` (stereo partly drawn) [Example 379, 4-[trans-4-(2-hydroxypropoxy)cyclohexyl]-6-{[2′-(5-oxo-4,5-dihydro-1,2,4-oxadiazol-3-yl)biphenyl-4-yl]methyl}-7-propyl[1,2,4]triazolo[1,5-a]pyrimidin-5(4H)-one], at human AT1 receptor, the IC50 was 2.2 nM. Besides, the activation at 1 µM at human PPARγ came out at 34%.

`CCCc1c(Cc2ccc(-c3ccccc3-c3noc(=O)[nH]3)cc2)c(=O)n([C@H]2CC[C@H](OCC(O)(CF)CF)CC2)c2ncnn12` [Example 339, 4-{trans-4-[3-fluoro-2-(fluoromethyl)-2-hydroxypropoxy]cyclohexyl}-6-{[2′-(5-oxo-4,5-dihydro-1,2,4-oxadiazol-3-yl)biphenyl-4-yl]methyl}-7-propyl[1,2,4]triazolo[1,5-a]pyrimidin-5(4H)-one] had an IC50 at human AT1 receptor of 1.4 nM. For the same compound, the activation at 1 µM at human PPARγ came to 27%.

`CCCc1c(Cc2ccc(-c3ccccc3-c3noc(=O)[nH]3)cc2)c(=O)n([C@H]2CC[C@H](OCC(O)(CC)CC)CC2)c2ncnn12` [Example 225, 4-[trans-4-(2-ethyl-2-hydroxybutoxy)cyclohexyl]-6-{[2′-(5-oxo-4,5-dihydro-1,2,4-oxadiazol-3-yl)biphenyl-4-yl]methyl}-7-propyl[1,2,4]triazolo[1,5-a]pyrimidin-5(4H)-one] returned an IC50 at human AT1 receptor of 2.3 nM. For the same compound, the activation at 1 µM on human PPARγ is 21%.

`CCCc1c(Cc2ccc(-c3ccccc3-c3noc(=O)[nH]3)cc2F)c(=O)n([C@H]2CC[C@H](OC(C)C#N)CC2)c2nc(C)nn12` (stereo partly drawn) [Example 249, 2-({trans-4-[6-{[3-fluoro-2′-(5-oxo-4,5-dihydro-1,2,4-oxadiazol-3-yl)biphenyl-4-yl]methyl}-2-methyl-5-oxo-7-propyl[1,2,4]triazolo[1,5-a]pyrimidin-4(5H)-yl]cyclohexyl}oxy)propanenitrile]: at human AT1 receptor, the half-inhibitory concentration (IC50) turned out to be 2.5 nM. This compound also came in with an activation at 1 µM at human PPARγ of 35%.

Turning to `CCCc1c(Cc2ccc(-c3ccccc3-c3noc(=O)[nH]3)cc2)c(=O)n([C@H]2CC[C@@]3(CCC(CO)O3)CC2)c2ncnn12` (stereo partly drawn) [Example 392, 4-[(5R,8R)-2-(hydroxymethyl)-1-oxaspiro[4.5]dec-8-yl]-6-{[2′-(5-oxo-4,5-dihydro-1,2,4-oxadiazol-3-yl)biphenyl-4-yl]methyl}-7-propyl[1,2,4]triazolo[1,5-a]pyrimidin-5(4H)-one], the IC50 on human AT1 receptor was 2.2 nM. This compound showed an activation at 1 µM on human PPARγ of 20%.

In the case of `CCCc1c(Cc2ccc(-c3ccccc3-c3noc(=O)[nH]3)cc2)c(=O)n([C@H]2CC[C@@H](Oc3ccc(C(C)=O)cc3)CC2)c2ncnn12` [Example 277, 4-[cis-4-(4-acetylphenoxy)cyclohexyl]-6-{[2′-(5-oxo-4,5-dihydro-1,2,4-oxadiazol-3-yl)biphenyl-4-yl]methyl}-7-propyl[1,2,4]triazolo[1,5-a]pyrimidin-5(4H)-one], on human AT1 receptor, the IC50 was 2.2 nM. On human PPARγ, this compound displayed an activation at 1 µM of 20%.

Compound `CCCc1c(Cc2ccc(-c3ccccc3-c3noc(=O)[nH]3)cc2)c(=O)n([C@H]2CC[C@@H](Oc3ccc(O)cc3)CC2)c2ncnn12` [Example 274, 4-[cis-4-(4-hydroxyphenoxy)cyclohexyl]-6-{[2′-(5-oxo-4,5-dihydro-1,2,4-oxadiazol-3-yl)biphenyl-4-yl]methyl}-7-propyl[1,2,4]triazolo[1,5-a]pyrimidin-5(4H)-one] displayed an IC50 on human AT1 receptor of 2.2 nM. In addition, on human PPARγ, the activation at 1 µM was 42%.

Turning to `CCCc1c(Cc2ccc(-c3ccccc3-c3noc(=O)[nH]3)cc2F)c(=O)n(C2CCSCC2)c2nc(C)nn12` [Example 113, 6-{[3-fluoro-2′-(5-oxo-4,5-dihydro-1,2,4-oxadiazol-3-yl)biphenyl-4-yl]methyl}-2-methyl-7-propyl-4-(tetrahydro-2H-thiopyran-4-yl)[1,2,4]triazolo[1,5-a]pyrimidin-5(4H)-one], the IC50 on human AT1 receptor was 1.5 nM. Besides, the activation at 1 µM on human PPARγ is 20%.

Consider `CCCc1c(Cc2ccc(-c3ccccc3-c3noc(=O)[nH]3)cc2)c(=O)n(C2CCC(OCCOC)CC2)c2ncnn12` (centres unmarked) [Example 154, 4-[4-(2-methoxyethoxy)cyclohexyl]-6-{[2′-(5-oxo-4,5-dihydro-1,2,4-oxadiazol-3-yl)biphenyl-4-yl]methyl}-7-propyl[1,2,4]triazolo[1,5-a]pyrimidin-5(4H)-one], for which, at human AT1 receptor, the IC50 worked out at 2.1 nM. In addition, the activation at 1 µM on human PPARγ came out at 33%.

On human AT1 receptor, `CCCc1c(Cc2ccc(-c3ccccc3-c3noc(=O)[nH]3)cc2)c(=O)n([C@H]2CC[C@H](OCC(C)(C)O)CC2)c2c(F)cnn12` [Example 442, 3-fluoro-4-[trans-4-(2-hydroxy-2-methylpropoxy)cyclohexyl]-6-{[2′-(5-oxo-4,5-dihydro-1,2,4-oxadiazol-3-yl)biphenyl-4-yl]methyl}-7-propylpyrazolo[1,5-a]pyrimidin-5(4H)-one] came in with an IC50 of 2 nM. Further, the activation at 1 µM at human PPARγ stood at 22%.

Compound `CCCc1c(Cc2ccc(-c3ccccc3-c3noc(=O)[nH]3)cc2)c(=O)n([C@H]2CC[C@H](OCC(C)(O)CF)CC2)c2nc(C)nn12` (stereo partly drawn) [Example 354, 4-[trans-4-(3-fluoro-2-hydroxy-2-methylpropoxy)cyclohexyl]-2-methyl-6-{[2′-(5-oxo-4,5-dihydro-1,2,4-oxadiazol-3-yl)biphenyl-4-yl]methyl}-7-propyl[1,2,4]triazolo[1,5-a]pyrimidin-5(4H)-one] came in with an IC50 on human AT1 receptor of 1.2 nM. The compound further had an activation at 1 µM on human PPARγ of 18%.

`CCCc1c(Cc2ccc(-c3ccccc3-c3noc(=O)[nH]3)cc2)c(=O)n(C2CCC(=CCO)CC2)c2ncnn12` (centres unmarked) [Example 191, 4-[4-(2-hydroxyethylidene)cyclohexyl]-6-{[2′-(5-oxo-4,5-dihydro-1,2,4-oxadiazol-3-yl)biphenyl-4-yl]methyl}-7-propyl[1,2,4]triazolo[1,5-a]pyrimidin-5(4H)-one] returned a half-maximal inhibitory concentration (IC50) at human AT1 receptor of 1.6 nM. At human PPARγ, this compound had an activation at 1 µM of 34%.

On human AT1 receptor, `CCCc1c(Cc2ccc(-c3ccccc3-c3noc(=O)[nH]3)cc2)c(=O)n(C2CCC3(CC2)OCC(C)(C)CO3)c2ncnn12` [Example 170, 4-(3,3-dimethyl-1,5-dioxaspiro[5.5]undec-9-yl)-6-{[2′-(5-oxo-4,5-dihydro-1,2,4-oxadiazol-3-yl)biphenyl-4-yl]methyl}-7-propyl[1,2,4]triazolo[1,5-a]pyrimidin-5(4H)-one] displayed a half-maximal inhibitory concentration (IC50) of 1.6 nM. The activation at 1 µM at human PPARγ was 20%.

As for `CCCc1c(Cc2ccc(-c3ccccc3-c3noc(=O)[nH]3)cc2F)c(=O)n(-c2ccc(OC(C)C)cc2)c2ncnn12` [Example 43, 6-{[3-fluoro-2′-(5-oxo-4,5-dihydro-1,2,4-oxadiazol-3-yl)biphenyl-4-yl]methyl}-4-[4-(1-methylethoxy)phenyl]-7-propyl[1,2,4]triazolo[1,5-a]pyrimidin-5(4H)-one], the IC50 at human AT1 receptor came out at 2.1 nM. This compound came in with an activation at 1 µM at human PPARγ of 34%.

As to `CCCc1c(Cc2ccc(-c3ccccc3-c3noc(=O)[nH]3)cc2)c(=O)n(C2CCC(=NOC)CC2)c2ncnn12` (centres unmarked) [Example 188, 4-[4-(methoxyimino)cyclohexyl]-6-{[2′-(5-oxo-4,5-dihydro-1,2,4-oxadiazol-3-yl)biphenyl-4-yl]methyl}-7-propyl[1,2,4]triazolo[1,5-a]pyrimidin-5(4H)-one], on human AT1 receptor, the IC50 stood at 1.9 nM. At human PPARγ, the activation at 1 µM stood at 25%.
